Values of other authors in patent US8293711B2, “Use of natriuretic peptides for treating angioedema syndromes” (Pharis Biotech GmbH, priority 2007, dated 2012).

Columns and labels:
HEK-293 = settings: human embryonic kidney cell line HEK-293; via activation of a cGMP-dependent pathway
[1] = tested on: bradykinin-induced edema in the hamster cheek pouch; settings: unspecific tyrosine kinase inhibitors
[2] = tested on: acute renal failure models

Row | Compound | tyrosine phosphorylation (HEK-293) | bradykinin-mediated effect (edema) [1] | diuretic and natriuretic effects [2]
1 | CC[C@H](C)[C@@H]1NC(=O)[C@H](CCCNC(=N)N)NC(=O)[C@H](CC(=O)O)NC(=O)[C@H](CCSC)NC(=O)[C@H](CCCNC(=N)N)NC(=O)CNC(=O)CNC(=O)[C@H](Cc2ccccc2)NC(=O)[C@@H](NC(=O)[C@H](CO)NC(=O)[C@H](CO)NC(=O)[C@H](CCCNC(=N)N)NC(=O)[C@H](CCCNC(=N)N)NC(=O)[C@H](CC(C)C)NC(=O)[C@@H](N)CO)CSSC[C@@H](C(=O)N[C@@H](CC(N)=O)C(=O)N[C@@H](CO)C(=O)N[C@@H](Cc2ccccc2)C(=O)N[C@@H](CCCNC(=N)N)C(=O)N[C@@H](Cc2ccc(O)cc2)C(=O)O)NC(=O)CNC(=O)[C@H](CC(C)C)NC(=O)CNC(=O)[C@H](CO)NC(=O)[C@H](CCC(N)=O)NC(=O)[C@H](C)NC(=O)CNC1=O [ANP, atrial natriuretic peptide] | able to counteract tyrosine phosphorylation |  | 
2 | O=c1c(-c2ccc(O)cc2)coc2cc(O)cc(O)c12 [genistein] |  | attenuated | 
3 | N#CC(C#N)=Cc1cc(O)c(O)c(O)c1 [tyrphostin 25] |  | attenuated | 
4 | urodilatin | able to counteract tyrosine phosphorylation |  | strong diuretic and natriuretic effects
